# In patent US20220409617A1, “Drug Formulations and Methods of Treatment for Metabolic Disorders” (The Regents of the University of California, priority 2019, published 2022):
# Assays:
# [1] = Voluntary cage running in HFD-fed mice; format: in vivo, mouse
# Excerpt: Exercise can mitigate the negative effects of hyper-nutrition. When provided with a running wheel, mice will voluntarily run 2-10 km per night, slowing the body weight and fat gain that normally accompany HFD feeding and improving metabolic status. To benchmark the effects of sphingolipid-like compound 893 against voluntary exercise and to determine whether the beneficial effects of these interventions are additive, 16 male, C57BL/6J mice that had been fed a HFD for 7 weeks were individually housed, provided with running wheels, and randomly assigned to receive vehicle or 120 mg/kg sphingolipid-like compound 893 on the Monday/Wednesday/Friday schedule. Rodent running activity declines under stress, and monitoring the duration and distance of voluntary wheel running also provides a holistic measure of overall mouse health. […] As expected, voluntary exercise led to weight loss in vehicle-treated mice maintained on a HFD that leveled off after the first week of intervention (FIGS. 15, 21, & 22). […] Wheel running reduced fat mass while maintaining lean mass in all groups (FIGS. 15, 22 & 23).
# To monitor voluntary exercise, sixteen mice were singly housed in home cages equipped with running wheels; initially n=8. A magnet was affixed to each 240 mm wheel and a bicycle odometer (Sigma BC509, Sigma Sports, Chicago) used to count the number of wheel revolutions and time spent on running on the wheels. Distance run was calculated by the equation (#revolutions×running wheel circumference=distance). The wheels were cleaned and randomly re-assigned weekly to each cage to control for differences in wheel performance. Two animals in the sphingolipid-like compound 893-treated group were euthanized due to gavage errors and were excluded from the analysis resulting in n=6.
# 3T3-L1 adipocytes = assay: Insulin-stimulated 2-deoxyglucose uptake; format: cell-based, mouse; conditions: 3 h, 893 10 μM, MK-2206 2 μM
# Experimental: (§1) 3T3-L1 cells were maintained in DMEM with 10% FBS and 1% penicillin-streptomycin until induced to differentiate. 3T3-L1 pre-adipocytes were differentiated as described in (M. P. Valley, et al., Anal. Biochem. 505: 43-50, 2016, the disclosure of which is incorporated herein by reference) with slight modifications. Briefly, pre-adipocytes were grown to confluence. After 2 d, cells were induced with maintenance media containing 500 μM IBMX (15879, Sigma-Aldrich, St. Louis, Mo.), 1 μM dexamethasone (D4902, Sigma-Aldrich), 5 μg/mL bovine insulin (10516, Sigma-Aldrich), and 5 μM troglitazone (50-115-0786, ApexBio). Media was changed every 2-3 d for 7 d. On day 7 post-induction, media was changed to maintenance media+5 μg/mL bovine insulin. On day 9 post-induction, media was changed to maintenance media. Mature adipocytes were used 12-14 d post-induction for all experiments. LSL-KrasG12D mouse embryonic fibroblasts (MEFs) with and without Cre-mediated deletion of the STOP cassette were obtained from David Tuveson (Cold Spring Harbor Laboratory, Cold Spring Harbor N.Y., USA) in 2000. p53^flox/flox MEFs were derived in house (2015) from C57BL/6 mice using standard techniques and immortalized by transient expression of Cre recombinase and deletion of p53. MEFs were cultured and maintained in DMEM with 10% FBS and 1% penicillin-streptomycin. […]
# A549 lung cancer cells = assay: KRAS-mediated mitochondrial fission in A549 cells; format: cell-based, human; conditions: A549, oncogenic KRAS; 893 5 μM 1 h, leflunomide 50 μM 24 h
# Experimental: as §1, with “penicillin-streptomycin. A549 cells were cultured in DMEM with 10% FBS, 1% penicillin-streptomycin and 1% sodium pyruvate. Stock solution of palmitic acid (ACROS Organics, cat # AC129702500) was prepared at 100 mM in ethanol. Palmitate (250 μM) was conjugated to 1% (w/v) fatty-acid free bovine serum albumin (Sigma, A8806) in DMEM at 37° C. for 20 min. For all immunofluorescence assays, 8,000 MEFs were seeded into 8-chamber slides (Cellvis, cat # C8-1.5H-N) 12-16 h before treatment. Cells were pre-treated with sphingolipid-like compound 893 (5 μM in water), myriocin (10 μM in methanol), fumonisin-B1 (30 μM in DMSO), or celastrol (500 nM in DMSO) for 3 h followed by a 3 h treatment with BSA-conjugated palmitate mixture or BSA alone.” for “penicillin-streptomycin.”
# MEFs were washed twice with PBS and fixed with 4% paraformaldehyde for 10 min at RT. […] NADH/NADPH autofluorescence was detected with 740 nm excitation and 450±50 nm detectors using a Mai Tai two-photon laser. Fluorescence microscopy was performed on a Zeiss LSM 780 confocal using a 63× oil objective with a […] numerical aperture (NA) or using a Nikon TE2000-S inverted epifluorescence microscope with a 100× oil objective (1.3 NA) and a Photometrics CoolSNAP ES2 monochrome CCD camera. […]
smiles,measurement,setting,value
CCCCCCCCc1ccc([C@H]2CCN[C@@H]2CO)cc1.Cl [compound 893],Average time spent on running wheels each day,"[1]; HFD-fed mice with running wheels, 120 mg/kg",equivalent in vehicle- and sphingolipid-like compound 893-treated groups
same,Average daily distance run,"[1]; HFD-fed mice with running wheels, 120 mg/kg Mon/Wed/Fri",2.8±1.2 km
same,"Weight loss, running wheel plus treatment","[1]; HFD-fed mice, running wheel and 120 mg/kg",even greater weight loss than observed with either treatment alone
same,Insulin-stimulated glucose uptake,3T3-L1 adipocytes,"but not sphingolipid-like compound 893, impeded insulin-stimulated glucose uptake in adipocytes"
same,Reversal of mitochondrial fragmentation / tubularity in A549 cells,A549 lung cancer cells,rapidly corrected KRAS-mediated mitochondrial fission
